Measurements: patent US8168391B2, “Method for modulating insulin production” (Burnham Institute for Medical Research, priority 2007, dated 2012)
Where a name gives a salt, the structure may show the parent alone.

test system: insulin promoter; test: HTS insulin promoter/eGFP reporter screen in T6PNE cells (absence of fatty acid); format: cell-based, human; settings: ChemBridge DiverSet library screen as in Example 2
Protocol: A library of 1000 candidate drug compounds was initially screened using NEPCs cultured in a 384-well HTS format using the following method. NEPCs were infected with promoter/reporter constructs in suspension for 6 hours. The cells were then directly plated on Collagen I coated 384-well microtiter plates in media containing 10% plasma. Monolayer formation was allowed to progress by culture for 4 days with regular media changes. Library compounds were then contacted with the cells and added at a final concentration of 5 μM and incubated for 48 hours. Image analysis was then performed using fluorescent microscopy using DAPI […] and imaging of GFP to determine promoter activation activity of individual compounds. Image analysis algorithms are further refined to eliminate auto-fluorescent debris to accurately quantify green fluorescence. The assays employ a cell line derived from human fetal islet cells ([…]) in which the cells are infected with a promoter/reporter construct. The construct is shown in FIG. 7 and incorporates an insulin promoter operably linked to an eGFP. Cells were infected and plated, and candidate libraries screened and “hit” detected as discussed in Example 1. To differentiate between agents that specifically act to reverse lipotoxicity as compared to generally increasing transcription of insulin a two layer screening approach was utilized. In the first layer, islet cells infected with an insulin promoter/reporter construct are screened in the absence of a fatty acid. A “hit” indicates an agent that is capable of increasing insulin transcription. In the second layer, islet cells infected with an insulin promoter/reporter construct are screened in the presence of a fatty acid. A “hit” indicates a drug that reverses the effects of the fatty acid addition, for example reduction of insulin transcription. This drugs screened in both layers may be used to identify whether the drug is specific to lipotoxicity reversal. For example, drugs that are “hits” in the second layer screen but not in the first layer screen are specific to lipotoxicity reversal. […]

| SMILES | upregulation of the insulin promoter |
| --- | --- |
| NCCc1ccc(O)c(O)c1 [dopamine] | upregulated the insulin promoter |

same assay, conditions: repeat of initial screen with dose response; T6PNE cells, insulin promoter-eGFP

| SMILES | activator of insulin promoter confirmed in confirmatory screen |
| --- | --- |
| CN(C)CCCN1c2ccccc2Sc2ccc(Cl)cc21 [chlorpromazine] | confirmed |
| CCN(CC)C(C)CN1c2ccccc2Sc2ccccc21 (stereo not drawn) [ethopropazine] | confirmed |

test system: insulin promoter; test: Insulin promoter/reporter screen in the presence of a fatty acid (reversal of palmitate-induced lipotoxicity); format: cell-based, human; settings: screen in presence of fatty acid (FIG. 20) vs not in presence (FIG. 19)
Excerpt: The assays employ a cell line derived from human fetal islet cells (T6PNE) in which the cells are infected with a promoter/reporter construct. The construct is shown in FIG. 7 and incorporates an insulin promoter operably linked to an eGFP. Cells were infected and plated, and candidate libraries screened and “hit” detected as discussed in Example 1.
To differentiate between agents that specifically act to reverse lipotoxicity as compared to generally increasing transcription of insulin a two layer screening approach was utilized. In the first layer, islet cells infected with an insulin promoter/reporter construct are screened in the absence of a fatty acid. A “hit” indicates an agent that is capable of increasing insulin transcription. In the second layer, islet cells infected with an insulin promoter/reporter construct are screened in the presence of a fatty acid. A “hit” indicates a drug that reverses the effects of the fatty acid addition, for example reduction of insulin transcription. This drugs screened in both layers may be used to identify whether the drug is specific to lipotoxicity reversal. For example, drugs that are “hits” in the second layer screen but not in the first layer screen are specific to lipotoxicity reversal.

| SMILES | reversal of palmitate-induced lipotoxicity |
| --- | --- |
| CC(=O)Oc1c(C)c(C)c2c(c1C)CCC(C)(CCC[C@H](C)CCC[C@H](C)CCCC(C)C)O2 (stereo partly drawn) [alpha-tocopheryl acetate] | expected to reverse lipotoxicity |
| CC(Cc1cccc(C(F)(F)F)c1)NCCOC(=O)c1ccccc1 (stereo not drawn) [benfluorex hydrochloride] | expected to reverse lipotoxicity |
| CC1=C(/C=C/C(C)=C/C=C/C(C)=C/C=C/C=C(C)/C=C/C=C(C)/C=C/C2=C(C)CCCC2(C)C)C(C)(C)CCC1 [beta-carotene] | expected to reverse lipotoxicity |
| Clc1ccc(C(OCCN2CCCCC2)c2ccccc2)cc1 (stereo not drawn) [cloperastine hydrochloride] | expected to reverse lipotoxicity |
| CC[C@H](C)C(=O)O[C@H]1C[C@@H](C)C=C2C=C[C@H](C)[C@H](CC[C@@H]3C[C@@H](O)CC(=O)O3)[C@H]21 [lovastatin] | expected to reverse lipotoxicity |
| Cc1cccc(Nc2ccccc2C(=O)O)c1C [mefenamic acid] | expected to reverse lipotoxicity |
